In EP1202975B1, “SUBSTITUTED POLYCYCLIC ARYL AND HETEROARYL PYRAZINONES USEFUL FOR SELECTIVE INHIBITION OF THE COAGULATION CASCADE” (Pharmacia Corporation, priority 1999, dated 2000):
Where two headings read alike, the source gives them in different places. Blank lines part the entries; values can stand above or below the compound they belong to.

How the values were obtained:
Human factor Xa [1] = biological target: T1, Human factor Xa (Homo sapiens, UniProt P00742)
TF-VIIa = biological target: T2, TF-VIIa (Homo sapiens, UniProt P08709); assay: TF-VIIa Assay; assay type: biochemical
T2 construct: 2nM recombinant human factor VIIa; purchased American Diagnostica, Greenwich CT; host or cells: soluble TF made in house in E. coli
T2 sequence (P08709 213-466 limits assumed): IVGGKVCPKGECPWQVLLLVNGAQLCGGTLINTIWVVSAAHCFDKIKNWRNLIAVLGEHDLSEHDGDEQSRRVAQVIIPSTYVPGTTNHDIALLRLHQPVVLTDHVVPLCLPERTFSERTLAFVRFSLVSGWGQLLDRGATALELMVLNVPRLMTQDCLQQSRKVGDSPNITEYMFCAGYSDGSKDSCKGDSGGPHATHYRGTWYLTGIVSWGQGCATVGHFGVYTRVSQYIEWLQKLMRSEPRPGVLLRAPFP
T2 sequence (P08709 61-212 limits assumed): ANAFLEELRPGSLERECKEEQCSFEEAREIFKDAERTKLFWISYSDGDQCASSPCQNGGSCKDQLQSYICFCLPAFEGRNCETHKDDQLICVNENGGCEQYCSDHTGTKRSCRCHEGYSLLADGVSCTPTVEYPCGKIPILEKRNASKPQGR
T2 sequence (P13726 33-251 partner limits assumed): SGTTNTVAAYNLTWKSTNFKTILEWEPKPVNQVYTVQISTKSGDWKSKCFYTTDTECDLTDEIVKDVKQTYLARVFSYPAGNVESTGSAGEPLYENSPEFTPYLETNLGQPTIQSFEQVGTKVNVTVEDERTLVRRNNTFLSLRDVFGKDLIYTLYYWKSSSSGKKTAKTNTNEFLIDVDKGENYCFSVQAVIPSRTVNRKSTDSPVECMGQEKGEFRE

Human factor Xa [2] = biological target: T1, Human factor Xa; assay: Xa Assay
[3] = cells given as a plain number (IC50); read-out: IC50 or % Inhibition TF-VIIa (30 µM)
[4] = read-out: IC50 or % Inhibition TF-VIIa (30 µM); cells given as a plain number (IC50)

T1 sequence (P00742 235-488 limits assumed): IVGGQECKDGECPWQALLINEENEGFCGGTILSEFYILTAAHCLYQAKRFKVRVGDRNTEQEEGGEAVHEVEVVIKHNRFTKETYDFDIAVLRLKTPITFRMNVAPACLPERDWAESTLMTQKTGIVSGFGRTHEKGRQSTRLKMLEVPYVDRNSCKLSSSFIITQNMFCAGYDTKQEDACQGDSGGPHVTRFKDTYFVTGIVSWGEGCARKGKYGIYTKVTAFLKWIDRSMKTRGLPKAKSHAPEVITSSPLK
T1 sequence (P00742 41-179 limits assumed): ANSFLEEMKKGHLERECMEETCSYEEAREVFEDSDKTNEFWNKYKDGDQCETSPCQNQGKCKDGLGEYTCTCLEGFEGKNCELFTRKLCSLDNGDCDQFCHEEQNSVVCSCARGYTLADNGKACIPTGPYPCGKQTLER

Compound: N=C(N)c1ccc(CNC(=O)Cn2c(-c3ccccc3)c(Cl)nc(NCc3c(F)cccc3C(F)(F)F)c2=O)cc1 [1512-44]
IC50 or % Inhibition Factor Xa (30 µM) (Human factor Xa [1]): 6%
IC50 or % Inhibition TF-VIIa (30 µM) (TF-VIIa): 43%

Compound: CSc1ccc(N)cc1-c1c(Cl)nc(NC(C)C)c(=O)n1CC(=O)NCc1ccc(C(=N)N)cc1 [compound 76]
IC50 or % Inhibition Factor Xa (30 µM) (Human factor Xa [2]; % inhibition at 30 µM): 0%

Compound: CCc1c(Cl)nc(NCCc2ccccc2)c(=O)n1CC(=O)NCc1ccc(C(=N)N)cc1 [1471-63]
IC50 or % Inhibition Factor Xa (30 µM) (Human factor Xa [1]): 2%
IC50 (TF-VIIa; [3]): 3.45 µM

Compound: N=C(N)c1ccc(CNC(=O)Cn2c(-c3ccccc3)c(Cl)nc(NCc3c(F)cccc3F)c2=O)cc1 [1512-43]
IC50 or % Inhibition Factor Xa (30 µM) (Human factor Xa [1]): 9%
IC50 (TF-VIIa; [4]): 11 µM

Compound: N=C(N)c1ccc(CNC(=O)Cn2c(-c3ccsc3)c(Cl)nc(NCc3ccccc3)c2=O)cc1 [1517-01]
IC50 or % Inhibition Factor Xa (30 µM) (Human factor Xa [1]): 0%
IC50 (TF-VIIa; [4]): 1.2 µM

Compound: CC(=O)Nc1cccc(-c2c(Cl)nc(NCCc3ccccc3)c(=O)n2CC(=O)NCc2ccc(C(=N)N)cc2)c1 [Example 100]
IC50 (Human factor Xa [2]): > 30 µM

Compound: N=C(N)c1ccc(CNC(=O)Cn2c(-c3ccc4c(c3)OCO4)c(Cl)nc(NCCc3cccnc3)c2=O)cc1 [1471-48]
IC50 or % Inhibition Factor Xa (30 µM) (Human factor Xa [1]): 17%
IC50 (TF-VIIa; [4]): 15.7 µM

Compound: N=C(N)c1ccc(CNC(=O)Cn2c(-c3cccc(Cl)c3)c(Cl)nc(NCCc3cccc(Cl)c3)c2=O)cc1 [1471-30]
IC50 or % Inhibition Factor Xa (30 µM) (Human factor Xa [1]): 41%
IC50 (TF-VIIa; [4]): 0.83 µM

Compound: CC(C)Nc1ncc(-c2cccc(N)c2)n(CC(=O)NCc2ccc(C(=N)N)c(F)c2)c1=O [Example 43]
IC50 or % Inhibition Factor Xa (30 µM) (Human factor Xa [1]): 0%
IC50 (TF-VIIa; [4]): 0.25 µM

Compound: N=C(N)c1ccc(CNC(=O)Cn2c(-c3ccc(Cl)cc3)c(Cl)nc(NCCc3ccc(Cl)cc3)c2=O)cc1 [1471-18]
IC50 or % Inhibition Factor Xa (30 µM) (Human factor Xa [1]): 26%
IC50 (TF-VIIa; [4]): 11.2 µM

Compound: Nc1n[nH]c2ccc(CNC(=O)Cn3c(-c4ccccc4)cnc(NCCc4ccccc4)c3=O)cc12 [Example 38]
IC50 or % Inhibition Factor Xa (30 µM) (Human factor Xa [1]): 22%
IC50 (TF-VIIa; [4]): 0.9 µM

Compound: COc1ccc(-c2c(Cl)nc(NCc3ccccc3)c(=O)n2CC(=O)NCc2ccc(C(=N)N)cc2)cc1 [1471-33]
IC50 or % Inhibition Factor Xa (30 µM) (Human factor Xa [1]): 22%
IC50 or % Inhibition TF-VIIa (30 µM) (TF-VIIa): 31%

Compound: CC(C)Nc1nc(Cl)c(-c2cccc(N)c2)n(CC(=O)NCc2ccc(C(=N)N)cc2F)c1=O [1543-40]
IC50 or % Inhibition Factor Xa (30 µM) (Human factor Xa [1]): 10%
IC50 (TF-VIIa; read-out: IC50 or % Inhibition TF-VIIa (30 µM); cells without % sign: IC50): 0.04 µM

Compound: Nc1ccc(CNC(=O)Cn2c(Cc3ccccc3)c(Cl)nc(NCCc3ccccc3)c2=O)cn1 [Example 9]
IC50 or % Inhibition Factor Xa (30 µM) (Human factor Xa [2]; cells given as a plain number (IC50)): >0 µM

Compound: Cc1c(Cl)nc(NCc2ccncc2)c(=O)n1CC(=O)NCc1ccc(C(=N)N)cc1 [1471-3]
IC50 or % Inhibition Factor Xa (30 µM) (Human factor Xa [1]): 0%
IC50 (TF-VIIa; [4]): 13.6 µM

Compound: CC(C)Nc1nc(Cl)c(-c2cccc(C(=O)O)c2)n(CC(=O)NCc2ccc(C(=N)N)cc2)c1=O [Example 65]
IC50 or % Inhibition Factor Xa (30 µM) (Human factor Xa [1]): 12%
IC50 (TF-VIIa; [3]): 0.36 µM

Compound: N=C(N)c1ccc(CNC(=O)Cn2c(-c3ccccc3)c(Cl)nc(NCCN3CCOCC3)c2=O)cc1 [1471-12]
IC50 or % Inhibition Factor Xa (30 µM) (Human factor Xa [1]): 9%
IC50 (TF-VIIa; [3]): 7.97 µM

Compound: N=C(N)c1ccc(CNC(=O)Cn2c(-c3ccccc3)c(Cl)nc(NCCc3ccc(Cl)c(Cl)c3)c2=O)cc1 [1507-44]
IC50 or % Inhibition Factor Xa (30 µM) (Human factor Xa [1]): 9%
IC50 (TF-VIIa; [4]): 6 µM

Compound: N=C(N)c1ccc(CNC(=O)Cn2c(-c3ccc(Cl)cc3)c(Cl)nc(NCCc3ccccc3)c2=O)cc1 [1471-23]
IC50 or % Inhibition Factor Xa (30 µM) (Human factor Xa [1]): 36%
IC50 (TF-VIIa; [3]): 8.88 µM

Compound: N=C(N)c1ccc(CNC(=O)Cn2c(-c3cccc(Cl)c3)c(Cl)nc(NCc3ccccc3)c2=O)cc1 [1471-25]
IC50 or % Inhibition Factor Xa (30 µM) (Human factor Xa [2]; % inhibition at 30 µM): 31%

Results, then the compound that gave them:

% Inhibition Factor Xa (100 µM) (Human factor Xa [1]): 3%
% Inhibition TF-VIIa (100 µM) (TF-VIIa): 0%
Compound: COc1ccc(-c2c(Cl)nc(NCc3ccccc3)c(=O)n2CC(=O)NCCc2ccncc2)cc1 [Example E-0097]

% Inhibition Factor Xa (100 µM) (Human factor Xa [1]): 1%
% Inhibition TF-VIIa (100 µM) (TF-VIIa): 0%
Compound: O=C(Cn1c(-c2ccccc2)c(Cl)nc(NCc2ccccc2)c1=O)NCCc1ccncc1 [Example E-0009]

% Inhibition Factor Xa (100 µM) (Human factor Xa [1]): 0%
% Inhibition TF-VIIa (100 µM) (TF-VIIa): 0%
Compound: O=C(Cn1c(CCc2ccccc2)c(Cl)nc(NCCc2cccc(Cl)c2)c1=O)NCCc1ccncc1 [Example E-0067]

% Inhibition Factor Xa (100 µM) (Human factor Xa [1]): 0%
% Inhibition TF-VIIa (100 µM) (TF-VIIa): 0%
Compound: O=C(Cn1c(-c2ccccc2)c(Cl)nc(NCCc2cccc(Cl)c2)c1=O)NCCc1ccncc1 [Example E-0011]

% Inhibition Factor Xa (100 µM) (Human factor Xa [1]): 0%
% Inhibition TF-VIIa (100 µM) (TF-VIIa): 0%
Compound: COc1ccc(-c2c(Cl)nc(NCc3ccccc3)c(=O)n2CC(=O)NCCc2ccncc2)cc1 [Example E-0033]

% Inhibition Factor Xa (100 µM) (Human factor Xa [1]): 2%
% Inhibition TF-VIIa (100 µM) (TF-VIIa): 0%
Compound: COc1ccc(-c2c(Cl)nc(NCc3ccccc3)c(=O)n2CC(=O)NCCc2cccnc2)cc1 [Example E-0098]

% Inhibition Factor Xa (100 µM) (Human factor Xa [1]): 0%
% Inhibition TF-VIIa (100 µM) (TF-VIIa): 0%
Compound: COc1ccc(-c2c(Cl)nc(NCc3ccncc3)c(=O)n2CC(=O)NCCc2ccncc2)cc1 [Example E-0040]

% Inhibition Factor Xa (100 µM) (Human factor Xa [1]): 0%
% Inhibition TF-VIIa (100 µM) (TF-VIIa): 0%
Compound: O=C(Cn1c(CCc2ccccc2)c(Cl)nc(NCCc2cccnc2)c1=O)NCCc1ccncc1 [Example E-0069]
